Key:
alkaline phosphatase [1] = test: Quantum yield determination of dioxetane chemiluminescence after alkaline phosphatase addition; assay type: biochemical; conditions: 0.1M DEA, pH, 25° C., dioxetane concentration 3.7 × 10^−7M to 6 × 10^−6M
Excerpt: Various dioxetanes within the scope of this invention have been prepared and tested for essential properties, such as quantum yield (performed by an independent laboratory according to the procedure listed below), T½ and the emission wavelength maxima. These dioxetanes are identified by number, and in the tables following after the number, the identity of the substituent on the adamantyl ring, if any followed by the identity of the Z substituent is given. In the compounds tested, X is phosphate. Values for quantum yield and T½ are obtained both for the dioxetane along in 0.1 molar DEA, and in the presence of an enhancement agent, Sapphire II.
[…] […] […] The tube was then placed in MGM Optocomp® I luminometer and the light signal was measured at 1 sec integration times. […] The total counts for the dioxetane were determined from the intensity data. Total counts observed for a given concentration of dioxetane is the product of Photon Detection Efficiency (PDE) of the luminometer, the quantum yield of dioxetane and the number of molecules capable of emitting light (concentration of dephosphorylated dioxetanes). PDE for the MGM Optocomp® I luminometer was determined to be 2.56×10^−3, measured with a Biolink® absolute standard and utilizing the known spectral response of the luminometer's PMT and the known emission spectrum of the dioxetanes. The quantum yield is calculated by dividing the total counts measured by the PDE and the concentration of the dioxetane.

alkaline phosphatase [2] = test: Chemiluminescence emission wavelength maximum (Spex Fluorolog); assay type: biochemical; conditions: for μL em: 0.1M DEA, pH, 25° C., dioxetane concentration 3.7 × 10^−7M to 6 × 10^−6M; for Emission Max, nm, +BDMQ: in the presence of BDMQ; for Emission Max, nm, No Addition: no enhancement agent; for Emission Max, nm, On Nylon: on a nylon membrane
Method: […] The solution was equilibrated 5 minutes in a Spex Fluorolog Fluorimeter and then scanned 5 times at 0.5 sec/nm for chemiluminescent emission. The chemiluminescence emission wavelength maximum was recorded.

| Compound | Quantum Yield (alkaline phosphatase [1]) | Quantum Yield (alkaline phosphatase [1]; second table) | μL em (alkaline phosphatase [2]) | μL em (alkaline phosphatase [2]; second table) | Emission Max, nm, +BDMQ (alkaline phosphatase [2]) [nm] | Emission Max, nm, No Addition (alkaline phosphatase [2]) [nm] | Emission Max, nm, On Nylon (alkaline phosphatase [2]) [nm] |
| --- | --- | --- | --- | --- | --- | --- | --- |
| COC1(c2cccc(OP(=O)(O)O)c2)OOC12C1CC3CC(C1)CC2C3 (stereo not drawn) [AMPPD, 3-(2′-spiroadamantane)4-methoxy-4-(3″-phosphoryloxy)phenyl-1,2-dioxetane, reference compound] | 1.5 × 10^−5 | 1.5 × 10^−5 | 477 | 477 | – | – | – |
| COC1(c2cccc(OP(=O)(O)O)c2)OOC12C1CC3CC2CC(Cl)(C3)C1 (stereo not drawn) [CSPD, reference compound] | 5.2 × 10^−5 | 5.2 × 10^−5 | 475 | 475 | – | – | – |
| COC1(c2cc(Cl)cc(OP(=O)([O-])[O][NaH2-2])c2)OOC12C1CC3CC(C1)CC2C3.[Na+] (stereo not drawn) [Dioxetane 128-70, Disodium 3-chloro-5-(methoxyspiro(1,2-dioxetane-3,2′-tricylo[3.3.1.1^3,7]-decan]-4-yl)-1-phenyl Phosphate] | 1.4 × 10^−4 | 1.4 × 10^−4 | 471 | 471 | 463 | 471 | 461 |
| COC1(c2cc(Cl)cc(OP(=O)([O-])[O][NaH2-2])c2)OOC12C1CC3CC2CC(Cl)(C3)C1.[Na+] (stereo not drawn) [Dioxetane 128-87, Disodium 3-chloro-5-(methoxyspiro(1,2-dioxetane-3,2′-(5-chloro-)tricyclo-[3.3.1.1^3,7]-decan]-4-yl)-1-phenyl Phosphate] | 1.2 × 10^−4 | 1.2 × 10^−4 | 470 | 470 | 464 | 470 | 459 |
| COc1cc(OP(=O)([O-])[O][NaH2-2])cc(C2(OC)OOC23C2CC4CC3CC(Cl)(C4)C2)c1.[Na+] (stereo not drawn) [Dioxetane 140-17, Disodium 5-methoxy-3-(methoxyspiro(1,2-dioxetane-3,2′-(5-chloro-)tricyclo-[3.3.1.1^3,7]-decan]-4-yl)-1-phenyl Phosphate] | 2.3 × 10^−5 | 2.3 × 10^−5 | 475 | 475 | 464 | 475 | 463 |
| COc1cc(OP(=O)([O-])[O][NaH2-2])cc(C2(OC)OOC23C2CC4CC(C2)CC3C4)c1.[Na+] (stereo not drawn) [Dioxetane 140-20, Disodium 5-methoxy-3-(methoxyspiro(1,2-dioxetane-3,2′-tricyclo[3.3.1.1^3,7]-decan]-4-yl)-1-phenyl Phosphate] | 1.5 × 10^−5 | 1.5 × 10^−5 | 476 | 476 | 466 | 476 | 461 |

— patent publication US6346615B1, “Chemiluminescent 1,2-dioxetanes” (Tropix, Inc., priority 1989, dated 2002)
